Measured values as given in patent publication US20240099298A1, “BIOINSECTICIDAL COMPOSITIONS CONTAINING MONOTERPENES AND METHODS OF USE THEREOF” (priority 2017, published 2024).
Converted amounts (≈) assume the structure as drawn.

Experiments:
[1] = tested on: Megalurothrips usitatus (Bagrall) (thrips); test: Median lethal concentration fumigation test, thrips; settings: adult thrips, exposed one hour, mortality observed in 24 hours
[2] = tested on: H. picinus (Nitidulid beetle); test: Median lethal time (LT50) test, Nitidulid beetle; type: in vivo, Haptoncus picinus
Description: (§1) All treatments and controls were in triplicate.
(§2) Toxicity of Monoterpenes as Fumigants. […] Therefore, to determine how fast the monoterpenes act as fumigants, it was necessary to determine their LT50 values for the target organisms.

adult T. palmi = settings: cited from earlier work
[3] = tested on: A. japonicus (parasitic wasp); test: Median lethal time (LT50) test, parasitic wasp (natural enemy); settings: non-target parasitic wasp
[4] = tested on: Frankliniella occidentalis second-instar nymphs; test: whole plant or invertebrate; settings: 24 h, second-instar nymphs of F. occidentalis, 24 h after treatment
Method: Chemicals. […] These monoterpenes and the positive control spinosyn A (Bosite Technology, Chongqing, China) were dissolved in acetone (10 g/L).
Insects. F. occidentalis Thrips were provided by the Institute of Vegetables and Flowers, Chinese Academy of Agricultural Sciences (Beijing, China), and kept in a box (19 cm×14 cm×20 cm) at 27±1° C., humidity of 50%-60% and a photoperiod of 16:8 h (light:dark). The population was established with sword beans (Canavalia gladiata). Second-instar nymphs with the same growth were tested.
Insect Assays. […] The leaf blade (2 cm×3 cm) was immersed in the solution for 10 s in the test solution, and then air-dried until there were no water drops on the surface. The concentrations were the same as those used in the insecticide-impregnated membrane method. After the chemical film had been formed for 2 h, the infusion leaves were placed in the bottles. The second-instar nymphs were picked with a soft writing brush to make up ten insects per bottle. The bottles were sealed with plastic wrap. 1% Triton X-100 (m/V) aqueous solution as a blank control. Each treatment was repeated four times. The bottles were placed under temperature of 27±1° C., humidity of 50%-60% and photoperiod of 16:8 h (light:dark). […] The insects were touched with a soft brush and numbers of dead and living Thrips were recorded, followed by calculation of the mortality rates.

[5] = tested on: B. cucuribitae (melon fly); test: Median lethal time (LT50) test, melon fly; type: in vivo, Bactrocera cucuribitae
Description: as §1, §2

Aedes aegypti (mosquito) = test: Median knockdown concentration (KC50) test, mosquito; type: in vivo
Description: as §1
(§3) Knockdown Activity of Monoterpenes.

[6] = tested on: Musca domestica (housefly); test: Median knockdown concentration (KC50) test, housefly; type: in vivo; settings: Musca domestica
Description: as §1, §3

Thrips, M. usitatus = test: Headspace fumigation toxicity of linalool mixed in peanut oil; type: in vivo, Megalurothrips usitatus; settings: thrips exposed to headspace above the solution
[7] = target: T1, recombinant gamma-aminobutyric acid receptor-associated protein (rGABARAP) (Frankliniella occidentalis, UniProt A0A6J1T1Q2); test: Microscale thermophoresis (MST) binding to rGABARAP; settings: rGABARAP; read-out: Kd value, MST
Description: (§4) Preparation of recombinant GABARAP (rGABARAP) protein. RNA was extracted from F. occidentalis and cDNA was then synthesized. GABARAP (GenBank accession No. LOC113211372) was obtained after PCR amplification (Stafford-Banks, et al. (2014) Plos One 9:e94447).
Interaction between ME and rGABARAP. A Nano Temper Monolith NT.115 MST system (Nano Temper, Munich, Germany) was used to assess the binding affinities between the target compounds and rGABARAP according to the published procedures (Zan, et al. (2020) Journal of Agricultural and Food Chemistry 68:6280-6285). Spinosyn A was used as a chemical positive control. Spinosyn A (≥1 nM) can trigger a change of the Cl^− current of insect neuron GABAAR, which is considered to be an insecticidal action mechanism of spinosyn A (Watson (2001) Pesticide Biochemistry and Physiology 71:20-28). Ovalbumin (OVA) (Sangon Biotech, Shanghai, China) is a control protein consisting of 385 amino acid residues. The interaction between OVA and ME was used as a protein control experiment (Huntington, et al. (1995) Protein Science 4:613-621).

[8] = target: T1, recombinant gamma-aminobutyric acid receptor-associated protein (rGABARAP); test: Isothermal titration calorimetry (ITC) binding to rGABARAP; settings: 25° C., pH 7.4
Method: as §4
The isothermal titration thermal binding measurements were performed with an ITC-200 calorimeter (GE Healthcare, Boston, MA) at 25° C. in a buffer containing 50 mM Tris-HCl and 100 mM NaCl (pH 7.4). […] The MicroCal Origin 7.0 software system was used for data processing. The first run was a pre-run and was excluded from the final data. The amount of protein in the sample pool was constant. […] The experimental bimolecular interaction data from the 18 drops were used to calculate the dissociation constant. The dissociation constant […] was calculated as 1/K (Li, et al. (2018) RSC Advances 8:18952-18958).

T1 sequence (A0A6J1T1Q2 1-118): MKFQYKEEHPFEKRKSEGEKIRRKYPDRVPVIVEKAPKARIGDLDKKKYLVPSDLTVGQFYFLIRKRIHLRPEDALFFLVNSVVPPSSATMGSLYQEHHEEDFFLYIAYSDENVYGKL

SMILES: C=CC(C)(O)CCC=C(C)C (stereo not shown) [Linalool, 3,7-dimethylocta-1,6-dien-3-o1]
- LC50 (fiducial limits) [1]: 2.50 µg/mL (≈ 16.2 µM)
- LC90 (fiducial limits) [1]: 6.4 µg/mL (≈ 41.5 µM)
- LT50 (fiducial limits) [2]: 1.58 h
- LC50, fumigation toxicity (adult T. palmi): 5.5 µg/mL (≈ 35.7 µM)
- fold more effective than dichlorvos (adult T. palmi): 15.2 fold
- LT50 (fiducial limits) against A. japonicus [3]: 0.788 (0.71-0.86) hour
- LC50 [4]: 7 µg/mL (≈ 45.4 µM)
- LT50 (fiducial limits) [5]: 2.05 h
- time within which the insects responded (Aedes aegypti (mosquito)): ≤ 20 min
- KC50 (fiducial limits) (Aedes aegypti (mosquito); 20 Minutes): >243 µg/mL
- KC50 (fiducial limits) (Aedes aegypti (mosquito); 30 Minutes): 69.0 µg/mL
- KC50 (fiducial limits) ([6]; 20 Minutes): >243 µg/mL
- KC50 (fiducial limits) ([6]; 30 Minutes): 192 µg/mL
- LC50 of linalool mixed in peanut oil (Thrips, M. usitatus): 4.7%
- Kd [7]: 12.3 µM
- Kd [8]: 6.89 µM
